Data set [1] relates to mouse. The arrangement: method as in PMID 4962802, PMID 6379027. Particulars: PO; cited from earlier work.
Data set [2] in a line: Whole blood stability. The data set is classed as in vitro ADME, rat. The settings on record: fresh whole blood, male Sprague-Dawley rat blood, read-out: Compound remaining (% of 0 min). On the procedure: C16 (1 μM) or vehicle (DMSO) were incubated with fresh rat blood (Sprague Dawley, male) at 37°C at 5 time points in duplicate over a 120-min period. The final DMSO concentration in the incubation was 0.25%. Reactions were terminated following 0, 15, 30, 60 and 120 min by acetonitrile containing internal standard. The sampling plate was centrifuged (3000 rpm, 45 min, 4 °C) and the supernatants from each time point analyzed for parent compound by HPLC-MS/MS. The percentage of parent compound remaining at each time point relative to the 0-min sample was then calculated from HPLC-MS/MS peak area ratios (compound peak area/internal standard peak area).
C. Stability and metabolism
For details on ADME experiments not included underneath , please consult ref. [1].
C.A. Whole blood stability
Column: Kinetex XB-C18 column, 2.6 µm (150 x2.1 mm)
Mobile phase A: H2O + 0.1% v/v Formic Acid
Mobile phase B: MeCN + 0.1% v/v Formic Acid
Autosampler syringe volume: 100 µL
Weak wash: MeOH:H2O 1:9 v/v
Strong wash: MeOH:H2O 95:5 v/v
Table K. Gradient program.
Mass spectrometric conditions
Model: AB Sciex API5500 QTrap
Mode: Multiple ion monitoring (MIM)
Table L. MIM (parent to parent transitions).
The areas and percentages for the parent and metabolites have been calculated using MIM data where parent to parent transitions have been used, and assume that each metabolite has the same point of ionisation and the sensitivity of the metabolite has not been affected by the biotransformation.

As for `C[S+](C)[O-]` [DMSO, dimethyl sulfoxide], the 50% lethal dose (LD50) (usually the dose expected to kill half of the subjects tested) in data set [1] was 21000 to 28000 mg/kg.
For the compound `COc1ccc([C@@H]2Sc3ccccc3N(CCN(C)C)C(=O)[C@@H]2OC(C)=O)cc1` [diltiazem, reference compound], in data set [2] (15 min), the fraction remaining (commonly the share of the starting amount still present when the sample was taken) at 15 min, 1 µM amounted to 99.9%. Also, in data set [2] (30 min), the amount remaining at 30 min, 1 µM amounted to 91.1%. Moreover, the amount remaining at 60 min, 1 µM in data set [2] (60 min) turned out to be 74.3%. Also, in data set [2] (120 min), the amount remaining at 120 min, 1 µM worked out at 45.5%.
